Test results published in patent US3961066A, “6,7-Benzomorphan derivatives” (priority 1973, dated 1976).
Where two headings read alike, the source gives them in different places.

Tests used:
[1] = Analgesic activity (antagonism of the syndrome produced by intraperitoneal injection of 0.6 % aqueous acetic acid); type: in vivo, mice; details: for ED50: Mus musculus; for ED50 / analgesic activity compared with morphine: sc; for analgesic activity compared with pentazocin: s.c., result in words; for analgesic activity compared with morphine: mouse, in vivo
Protocol: Note: The test was based on the specific antagonism of the test compound to the typical syndrome produced by intraperitoneal injection of 0.6 % aqueous acetic acid. The syndrome was characterized by intermittent contractions of the abdomen, twisting and turning of the trunk and extension of the hind legs. A group of 5 mice was used for each dose level. The test compound was administered subcutaneously 20 minutes before the injection of acetic acid. […] The ED50 value was calculated according to the Litchfield-Wilcoxon's method.

[2] = Physical dependency (abstinence syndrome, body weight decrease after withdrawal following 4 weeks of s.c. administration); type: in vivo, male rats of Wistar strain; set-up: key to Abstinence syndrome: ++: severe decrease (about 5 % decrease); ++: moderate decrease; +: mild decrease; -: no decrease; details: rats
Protocol: Note: Groups of animals of male rats of Wistar strain (body weight, 150 g), each group consisting of 20 male rats, were subcutaneously given the test compound twice a day for 4 consecutive weeks. On the next day after drug withdrawal, the body weight was measured. The symbols have the following meanings: ++, severe decrease (about 5 % decrease); ++, moderate decrease; +, mild decrease; -, no decrease.

[3] = mice, s.c. 20 minutes before the injection of acetic acid, Litchfield-Wilcoxon's method, read-out: ED50

With `CC1CN(CCCC(=O)c2ccc(F)cc2)C2Cc3ccc(O)cc3C1(C)C2` (stereo not drawn) [2'-hydroxy-2-[γ-(p-fluorobenzoyl)-n-propyl]-4,5-dimethyl-6,7-benzomorphan] the ED50 [1, 3] was 0.36 mg/kg, the “analgesic activity compared with pentazocin” value ([1]; mice) was “much more potent analgesic activity than pentazocin” and the “analgesic activity compared with morphine” value [1] was “more potent analgesic activity than morphine”. The Abstinence syndrome ([2]; s.c., 40 mg/kg/day for 4 weeks, twice a day, body weight measured on the next day after drug withdrawal) was “-” and the physical dependency ([2]; subcutaneously, everyday for 4 weeks, result in words) was “did not produce any physical dependency”.
`CN1CC[C@]23c4c5ccc(O)c4O[C@H]2[C@@H](O)C=C[C@H]3[C@H]1C5` [Morphine, reference compound] gave an ED50 [1] of 1.2 mg/kg.
With `CC1CN(CCc2ccccc2)C2Cc3ccc(O)cc3C1(C)C2` (stereo not drawn) [2'-hydroxy-2-(β-phenylethyl)-4,5-dimethyl-6,7-benzomorphan] the ED50 [1, 3] was 0.23 mg/kg, the “analgesic activity compared with pentazocin” value ([1]; mice) was “much more potent analgesic activity than pentazocin” and the “analgesic activity compared with morphine” value [1] was “more potent analgesic activity than morphine”.
